# Assay results from PMC9817100, “Preclinical profiles of SKB264, a novel anti-TROP2 antibody conjugated to topoisomerase inhibitor, demonstrated promising antitumor efficacy compared to IMMU-132” (Frontiers in Oncology, 2022).
# Key:
# NCI-N87 (TROP2+) = experiment: cytotoxic assay (CellTiter-Glo, 72 h) NCI-N87; type: cell-based; settings: Homo sapiens, read-out: IC50 cell growth inhibition
# Procedure: (§1) Tumor cells were seeded on 96-well plates at the following concentrations: HCC1806 (3,000 cells per well), NCI-N87 (5,000 cells per well), BxPC-3 (2,000 cells per well), Calu-3 (8,000 cells per well), NCI-H23 (TROP2+, 3,000 cells per well), and NCI-H23 (parental, 3,000 cells per well). After overnight incubation, the diluted testing items were added respectively. After 72 h, cell viability was evaluated using a CellTiter-Glo Luminescent Cell Viability Assay (Promega Corp. Madison, WI), following the manufacturer’s instruction.
# NCI-H23(TROP2+) = experiment: cytotoxic assay (CellTiter-Glo, 72 h) NCI-H23 (TROP2+); type: cell-based; settings: Homo sapiens, read-out: IC50 cell growth inhibition
# Procedure: as §1
# [1] = metabolic related experiments (hepatic circulation); settings: unlike SN-38
# [2] = tested on: HCC1806, NCI-N87, BxPC3, Calu3, NCI-H23 (TROP2+), NCI-H23 (parental); experiment: cytotoxic assay, range over the six tumor cell lines; type: cell-based; settings: Homo sapiens, read-out: IC50 values, range over six cell lines
# Procedure: as §1
# To evaluate the effect of SKB264 on tumor cell proliferation, in vitro growth inhibition of cancer cell lines was determined by CellTiter-Glo Luminescent Cell Viability Assay. Cancer cell lines, including HCC1806, NCI-N87, BxPC3, Calu3, and NCI-H23 (TROP2+), highly expressed TROP2, while NCI-H23 (parental) was TROP2-negative ( Figure 3 ). […] NCI-H23 (TROP2+) cells were more sensitive to SKB264 than parental cells (TROP2−). […] Taken together, after SKB264 endocytosed through its interaction with TROP2 on cell surface, the releasing free KL610023 can inhibit tumor cell proliferation.
# BXPC3 (TROP2+) = experiment: cytotoxic assay (CellTiter-Glo, 72 h) BxPC-3; type: cell-based; settings: Homo sapiens, read-out: IC50 cell growth inhibition
# Procedure: as §1
# NCI-H23 (TROP2-) = experiment: cytotoxic assay (CellTiter-Glo, 72 h) NCI-H23 (parental); type: cell-based; settings: Homo sapiens, read-out: IC50 cell growth inhibition
# Procedure: as §1
# DNA topoisomerase I = target: T1, DNA topoisomerase I (Homo sapiens, UniProt P11387); experiment: topoisomerase I-mediated DNA relaxation assay (cell-free); type: biochemical; settings: read-out: DNA topoisomerase I inhibition (IC50)
# T1 sequence (P11387 1-765): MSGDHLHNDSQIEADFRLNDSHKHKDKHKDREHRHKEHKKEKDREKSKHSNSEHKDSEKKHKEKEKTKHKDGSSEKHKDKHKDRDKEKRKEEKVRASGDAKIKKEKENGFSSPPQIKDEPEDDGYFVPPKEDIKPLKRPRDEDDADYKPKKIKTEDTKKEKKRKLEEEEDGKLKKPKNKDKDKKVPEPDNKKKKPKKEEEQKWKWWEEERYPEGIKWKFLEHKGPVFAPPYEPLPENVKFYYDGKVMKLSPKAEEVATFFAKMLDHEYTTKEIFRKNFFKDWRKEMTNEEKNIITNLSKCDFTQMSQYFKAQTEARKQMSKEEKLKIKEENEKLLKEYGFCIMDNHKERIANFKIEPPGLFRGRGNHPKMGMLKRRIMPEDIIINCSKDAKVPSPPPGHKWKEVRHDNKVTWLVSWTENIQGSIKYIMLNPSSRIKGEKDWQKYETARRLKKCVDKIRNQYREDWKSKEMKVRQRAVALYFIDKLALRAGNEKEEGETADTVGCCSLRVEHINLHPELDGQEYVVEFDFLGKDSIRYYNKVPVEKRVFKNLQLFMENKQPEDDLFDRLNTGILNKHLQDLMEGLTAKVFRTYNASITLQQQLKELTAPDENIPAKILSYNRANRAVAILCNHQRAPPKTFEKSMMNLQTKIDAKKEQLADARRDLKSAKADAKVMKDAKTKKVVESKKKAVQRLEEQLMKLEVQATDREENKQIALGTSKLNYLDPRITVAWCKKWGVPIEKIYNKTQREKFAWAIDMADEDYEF
# Description: SKB264 is a TROP2-targeting ADC, which consists of a recombinant humanized anti-TROP2 antibody and a topoisomerase I inhibitor derived from Belotecan (KL610023), integrated together via a sulfonyl pyrimidine-CL2A-carbonate linker. The payload is conjugated with the antibody through irreversible nucleophilic aromatic substitution by tris (2-carboxyethyl) phosphine hydrochloride (TCEP HCl), a reducing agent that can reduce the interchain disulfide bounds. The drug-to-antibody ratio (DAR) of SKB264 was approximately 7.4, which was determined by the reversed-phase chromatography (RPC), and might be the theoretical maximum drug loading number for conventional interchain cysteine conjugation ( Figure 1B ). SKB264 was designed to release payload KL610023 after internalization by TROP2-expressing tumor cells. The inhibitory effect of KL610023 on topoisomerase I was almost similar to that of SN-38, as measured by a topoisomerase I-mediated DNA relaxation assay ( Figure 1C ).
# Figure 1 Structure and characterization of SKB264. […] (B) The distribution of the conjugated drug determined by the reverse-phase chromatography analysis (L-0: Unconjugated light chain, L-1: Light chain conjugated with one payload, H-0: Unconjugated heavy chain, H-1: Heavy chain conjugated with one payload, H-2: Heavy chain conjugated with two payloads, H-3: Heavy chain conjugated with three payloads). […]
# [3] = PK of SKB264 and KL610023 in cynomolgus monkeys (serum); type: in vivo; settings: unconjugated KL610023 0.24 mg/kg single i.v. infusion, n = 6, mean ± SD
# Procedure: The PK properties of SKB264 and Tab were determined by ELISA, for which the lower limit of quantitation was 7.813 ng/ml. The serum concentration of KL610023 was measured by a validated liquid chromatography tandem mass spectrometry (LC/MS-MS), for which the lower limit of quantitation was 0.100 ng/ml. A total of 24 cynomolgus monkeys were randomized into four groups (n = 3/sex/group). Groups #1, #2, and #3 were treated with 1, 3, and 10 mg/kg of SKB264, respectively, via 15 min i.v. infusion once. Group #4 received 0.24 mg/kg of unconjugated KL610023 via i.v. infusion once. The serum concentrations of SKB264, Tab, and KL610023 were continually measured up to 672 h post-dose.
# Phoenix WinNonlin 8.1 was used to calculate the PK parameters in the non-compartment model, including t 1/2, T max, C max, AUC0-t, and AUC0-∞. […] The half maximal effective concentration (EC50) and half maximal inhibitory concentration (IC50) were calculated using a nonlinear regression model with sigmoidal fitting. The in vitro antitumor activities of drugs were evaluated by a two-tailed paired t-test.
# [4] = both sexes, cynomolgus monkey, in vivo, iv
compound,measurement,setting,value
CC[C@@]1(O)C(=O)OCc2c1cc1n(c2=O)Cc2c-1nc1ccccc1c2CCN(C(C)C)S(C)(=O)=O [KL610023],IC50,NCI-N87 (TROP2+),2.01 nM
same,IC50,NCI-H23(TROP2+),4.77 nM
same,hepatic circulation,[1],no hepatic circulation
same,IC50,[2],1.36 to 6 nM
same,IC50,BXPC3 (TROP2+),6 nM
same,IC50,NCI-H23 (TROP2-),2.14 nM
same,IC50,DNA topoisomerase I,700 nM
same,half-life,"[3]; both sexes, cynomolgus monkey, in vivo, iv, 0.24 mg/kg",5.7 h
same,AUC(0-inf),[3]; [4],0.23 ± 0.0439 µg·h/mL
same,AUC(0-t),[3]; [4],0.228 ± 0.0442 µg·h/mL
same,t 1/2,[3]; 0.24 mg/kg,5.65 ± 2.53 h
